This is an account of results in the supplement of paper PMC10307832.

Common to all, as to assay: relative viability (nuclei count vs DMSO), 5 days (fraction); higher = more cells survive
Compound in the experiment “BAY61-3606 + Olaparib”: COC1=C(C=C(C=C1)C2=CC3=NC=CN3C(=N2)NC4=C(C=CC=N4)C(=O)N)OC [BAY61-3606] + O=C(c1cc(Cc2n[nH]c(=O)c3ccccc23)ccc1F)N1CCN(C(=O)C2CC2)CC1 [Olaparib] (partner 8 µM)
The essentials:
(§1)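 Lung cancer cell lines were seeded in 1536-well plates and dosed by pin tool the next day, with either a single drug or a fixed anchor-drug dose combined with five library-drug doses (not always all listed) spaced in √10 steps. Five days later, one step fixed the cells and stained their nuclei (final 0.05% Triton X-100, 1% formaldehyde, 1 ug/ml Hoechst), and nuclei were counted on 4× images. Relative viability is the nuclei count in treated wells divided by the count in vehicle wells, and each value is the median of duplicate plates.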

Compound in the experiment “BAY61-3606 + Navitoclax”: COC1=C(C=C(C=C1)C2=CC3=NC=CN3C(=N2)NC4=C(C=CC=N4)C(=O)N)OC [BAY61-3606] + CC1(C)CCC(c2ccc(Cl)cc2)=C(CN2CCN(c3ccc(C(=O)NS(=O)(=O)c4ccc(N[C@H](CCN5CCOCC5)CSc5ccccc5)c(S(=O)(=O)C(F)(F)F)c4)cc3)CC2)C1 [Navitoclax] (partner 0.5 µM)
The essentials:
as §1

Compound in the experiment “BAY61-3606 + Pictilisib”: COC1=C(C=C(C=C1)C2=CC3=NC=CN3C(=N2)NC4=C(C=CC=N4)C(=O)N)OC [BAY61-3606] + CS(=O)(=O)N1CCN(Cc2cc3nc(-c4cccc5[nH]ncc45)nc(N4CCOCC4)c3s2)CC1 [Pictilisib] (partner 1 µM)
An outline of the steps: as §1

Compound in the experiment “Doxorubicin + Dasatinib”: COc1cccc2c1C(=O)c1c(O)c3c(c(O)c1C2=O)C[C@@](O)(C(=O)CO)C[C@@H]3O[C@H]1C[C@H](N)[C@H](O)[C@H](C)O1 [Doxorubicin] + Cc1nc(Nc2ncc(C(=O)Nc3c(C)cccc3Cl)s2)cc(N2CCN(CCO)CC2)n1 [Dasatinib] (partner 0.075 µM)
An outline of the steps: as §1

With UMC-11, the relative viability is 0.351 with BAY61-3606 + Olaparib (first compound 0.02 µM); 0.385 with BAY61-3606 + Olaparib (first compound 0.06325 µM); 0.268 in the experiment with BAY61-3606 + Olaparib (first compound 0.2 µM); 0.643 with BAY61-3606 + Olaparib (first compound 0.6325 µM); 0.266 with BAY61-3606 + Olaparib (first compound 2 µM); 0.339 with BAY61-3606 + Navitoclax (first compound 0.02 µM). In addition, the relative viability with BAY61-3606 + Navitoclax (first compound 0.06325 µM) came out at 0.324; with BAY61-3606 + Navitoclax (first compound 0.2 µM) it was 0.309; with BAY61-3606 + Navitoclax (first compound 0.6325 µM), 0.344; with BAY61-3606 + Navitoclax (first compound 2 µM), 0.164; with BAY61-3606 + Pictilisib (first compound 0.02 µM), 0.851; with BAY61-3606 + Pictilisib (first compound 0.06325 µM), 0.799. Besides, the relative viability with BAY61-3606 + Pictilisib (first compound 0.2 µM) amounted to 0.527; with BAY61-3606 + Pictilisib (first compound 0.6325 µM), 0.922; with BAY61-3606 + Pictilisib (first compound 2 µM), 0.622; with Doxorubicin + Dasatinib (first compound 0.001 µM) it was 0.43; with Doxorubicin + Dasatinib (first compound 0.003162 µM) it was 0.47; with Doxorubicin + Dasatinib (first compound 0.01 µM), 0.44. The relative viability was 0.446 with Doxorubicin + Dasatinib (first compound 0.03162 µM) and 0.282 with Doxorubicin + Dasatinib (first compound 0.1 µM).
